{
  "source": "ChEMBL document CHEMBL5113512",
  "about": "“β-Nitrostyrene derivatives as broad range potential antifungal agents targeting fungal cell wall” (2022)",
  "key": {"Candida [1]": {"test_system": "Candida", "test": "Downregulation of CDC15 gene expression in Candida cells", "assay_type": "functional, cell-based"}, "Candida [2]": {"test_system": "Candida", "test": "Downregulation of RBT1 gene expression in Candida cells", "assay_type": "functional, cell-based"}, "Candida [3]": {"test_system": "Candida", "test": "Downregulation of PRS5 gene expression in Candida cells", "assay_type": "functional, cell-based"}, "Candida [4]": {"test_system": "Candida", "test": "Downregulation of CMP1 gene expression in Candida cells", "assay_type": "functional, cell-based"}, "Candida albicans [5]": {"test_system": "Candida albicans", "test": "Antifungal activity against Candida albicans ATCC 24433 assessed as inhibition of fungal growth by broth microdilution method", "assay_type": "functional"}, "Candida tropicalis": {"test_system": "Candida tropicalis", "test": "Antifungal activity against Candida tropicalis ATCC 750 assessed as inhibition of fungal growth by broth microdilution method", "assay_type": "functional"}, "[Candida] auris [6]": {"test_system": "[Candida] auris", "test": "Antifungal activity against Candida auris 102 assessed as inhibition of fungal growth by broth microdilution method", "assay_type": "functional", "settings": "Candidozyma auris"}, "Candida albicans [7]": {"test_system": "Candida albicans", "test": "Downregulation of ZCF19 gene expression in Candida albicans ATCC 24433 by qRT-PCR analysis", "assay_type": "functional"}, "Candida albicans [8]": {"test_system": "Candida albicans", "test": "Downregulation of ATO5 gene expression in Candida albicans ATCC 24433 by qRT-PCR analysis", "assay_type": "functional"}, "Candida albicans [9]": {"test_system": "Candida albicans", "test": "Upregulation of IFF8 gene expression in Candida albicans ATCC 24433 by qRT-PCR analysis", "assay_type": "functional"}, "Candida albicans [10]": {"test_system": "Candida albicans", "test": "Induction of ROS generation in Candida albicans ATCC 24433 assessed as increase in relative fluorescence unit at sub-inhibitory concentration incubated for 1 hr by DCFDA staining-based flow cytometric analysis", "assay_type": "functional, organism-based"}, "Candida albicans [11]": {"test_system": "Candida albicans", "test": "Antifungal activity against wild type Candida albicans SN152 assessed as inhibition of fungal growth by broth microdilution method", "assay_type": "functional"}, "Candida albicans [12]": {"test_system": "Candida albicans", "test": "Synergistic antifungal activity against Candida albicans SN152 harboring CAS5 mutant assessed as fluconazole MIC incubated for 48 hrs by checker board assay", "assay_type": "functional"}, "Candida albicans [13]": {"test_system": "Candida albicans", "test": "Synergistic antifungal activity against wild type Candida albicans SN152 assessed as Amphotericin B MIC incubated for 48 hrs by checker board assay", "assay_type": "functional"}, "Candida albicans [14]": {"test_system": "Candida albicans", "test": "Synergistic antifungal activity against wild type Candida albicans SN152 assessed as Caspofungin MIC incubated for 48 hrs by checker board assay", "assay_type": "functional"}, "Candida albicans [15]": {"test_system": "Candida albicans", "test": "Synergistic antifungal activity against Candida albicans SN152 harboring CAS5 mutant assessed as inhibition of fungal growth incubated for 48 hrs in presence of Caspofungin by checker board assay", "assay_type": "functional"}, "Candida albicans [16]": {"test_system": "Candida albicans", "test": "Synergistic antifungal activity against Candida albicans SN152 harboring CAS5 mutant assessed as fractional inhibitory concentration index incubated for 48 hrs in presence of Caspofungin by checker board assay", "assay_type": "functional"}, "Candida parapsilosis": {"test_system": "Candida parapsilosis", "test": "Synergistic antifungal activity against Candida parapsilosis ATCC 90018 assessed as fractional inhibitory concentration index incubated for 48 hrs in presence of Calcoflour White by checker board assay", "assay_type": "functional"}, "[Candida] auris [17]": {"test_system": "[Candida] auris", "test": "Synergistic antifungal activity against Candida auris CBS10913 assessed as inhibition of fungal growth incubated for 48 hrs in presence of Calcoflour White by checker board assay", "assay_type": "functional", "settings": "Candidozyma auris"}, "Candida albicans [18]": {"test_system": "Candida albicans", "test": "Synergistic antifungal activity against Candida albicans ATCC 24433 assessed as inhibition of fungal growth incubated for 48 hrs in presence of SDS by checker board assay", "assay_type": "functional"}, "Candida albicans [19]": {"test_system": "Candida albicans", "test": "Synergistic antifungal activity against Candida albicans ATCC 24433 assessed as fractional inhibitory concentration index incubated for 48 hrs in presence of SDS by checker board assay", "assay_type": "functional"}, "[Candida] auris [20]": {"test_system": "[Candida] auris", "test": "Synergistic antifungal activity against Candida auris CBS10913 assessed as inhibition of fungal growth incubated for 48 hrs in presence of SDS by checker board assay", "assay_type": "functional", "settings": "Candidozyma auris"}, "Candida albicans [21]": {"test_system": "Candida albicans", "test": "Antifungal activity against Candida albicans ATCC 24433 overexpressing ADCaMDR1-GFP assessed as inhibition of fungal growth by broth microdilution method", "assay_type": "functional"}, "Candida albicans [22]": {"test_system": "Candida albicans", "test": "Antifungal activity against Candida albicans ATCC 24433 overexpressing AD(1-8)u-assessed as inhibition of fungal growth by broth microdilution method", "assay_type": "functional"}, "Candida albicans [23]": {"test_system": "Candida albicans", "test": "Synergistic antifungal activity against Candida albicans ATCC 24433 overexpressing ADCaMDR1-GFP assessed as fractional inhibitory concentration index incubated for 48 hrs in presence of caspofungin by checker board assay", "assay_type": "functional"}, "Candida albicans [24]": {"test_system": "Candida albicans", "test": "Inhibition of drug efflux in Candida albicans ATCC 24433 overexpressing ADPDR5-GFP assessed as reduction in rhodamine 6g efflux preincubated for 45 mins followed by substrate addition and measured after 30 mins", "assay_type": "functional", "settings": "dose 0.1-100 µg/ml, time 75.0 min, DDE = dose-dependent effect"}, "Candida albicans [25]": {"test_system": "Candida albicans", "test": "Inhibition of drug efflux in Candida albicans ATCC 24433 overexpressing ADCaMDR1-GF assessed as […] in nile red efflux incubated for 30 mins by flow cytometry", "assay_type": "functional"}, "Candida [26]": {"test_system": "Candida", "test": "Downregulation of GUT1 gene expression in Candida cells", "assay_type": "functional, cell-based"}, "Candida [27]": {"test_system": "Candida", "test": "Upregulation of ARG6 gene expression in Candida cells", "assay_type": "functional, cell-based"}, "Candida [28]": {"test_system": "Candida", "test": "Upregulation of VPH2 gene expression in Candida cells", "assay_type": "functional, cell-based"}, "Candida [29]": {"test_system": "Candida", "test": "Upregulation of PLB5 gene expression in Candida cells", "assay_type": "functional, cell-based"}, "Candida [30]": {"test_system": "Candida", "test": "Upregulation of GAL4 gene expression in Candida cells", "assay_type": "functional, cell-based"}},
  "note": "Activity calls are given as the source filed them. The rule behind the calls is not given here.",
  "data": [
    {"compound": "O=[N+]([O-])/C=C/c1ccc(O)cc1", "values": [
      {"measurement": "Activity", "setting": "Candida [1]", "value": "Active"},
      {"measurement": "Activity", "setting": "Candida [2]", "value": "Active"},
      {"measurement": "Activity", "setting": "Candida [3]", "value": "Active"},
      {"measurement": "Activity", "setting": "Candida [4]", "value": "Active"},
      {"measurement": "MIC80", "setting": "Candida albicans [5]", "value": 4, "unit": "mg/L"},
      {"measurement": "MIC80", "setting": "Candida tropicalis", "value": 4, "unit": "mg/L"},
      {"measurement": "MIC80", "setting": "[Candida] auris [6]", "value": 4, "unit": "mg/L"},
      {"measurement": "Activity", "setting": "Candida albicans [7]", "value": "Active"},
      {"measurement": "Activity", "setting": "Candida albicans [8]", "value": "Active"},
      {"measurement": "Activity", "setting": "Candida albicans [9]", "value": "Active"},
      {"measurement": "Activity", "setting": "Candida albicans [10]", "value": "Active"},
      {"measurement": "MIC80", "setting": "Candida albicans [11]", "value": 8, "unit": "mg/L"},
      {"measurement": "MIC", "setting": "Candida albicans [12]", "value": 0.125, "unit": "mg/L"},
      {"measurement": "MIC", "setting": "Candida albicans [13]", "value": 0.25, "unit": "mg/L"},
      {"measurement": "MIC", "setting": "Candida albicans [14]", "value": 0.0312, "unit": "mg/L"},
      {"measurement": "MIC", "setting": "Candida albicans [15]", "value": 0.0019, "unit": "mg/L"},
      {"measurement": "fractional inhibitory concentration index (FICI)", "setting": "Candida albicans [16]", "value": 0.5},
      {"measurement": "fractional inhibitory concentration index (FICI)", "setting": "Candida parapsilosis", "value": 0.5},
      {"measurement": "MIC", "setting": "[Candida] auris [17]", "value": 0.25, "unit": "mg/L"},
      {"measurement": "MIC", "setting": "Candida albicans [18]", "value": 1, "unit": "mg/L"},
      {"measurement": "fractional inhibitory concentration index (FICI)", "setting": "Candida albicans [19]", "value": 0.5},
      {"measurement": "MIC", "setting": "[Candida] auris [20]", "value": 0.5, "unit": "mg/L"},
      {"measurement": "MIC80", "setting": "Candida albicans [21]", "value": 4, "unit": "mg/L"},
      {"measurement": "MIC80", "setting": "Candida albicans [22]", "value": 4, "unit": "mg/L"},
      {"measurement": "fractional inhibitory concentration index (FICI)", "setting": "Candida albicans [23]", "value": "<0.5"},
      {"measurement": "inhibition", "setting": "Candida albicans [24]", "value": "Dde"},
      {"measurement": "inhibition", "setting": "Candida albicans [25]", "value": "Active"},
      {"measurement": "Activity", "setting": "Candida [26]", "value": "Active"},
      {"measurement": "Activity", "setting": "Candida [27]", "value": "Active"},
      {"measurement": "Activity", "setting": "Candida [28]", "value": "Active"},
      {"measurement": "Activity", "setting": "Candida [29]", "value": "Active"},
      {"measurement": "Activity", "setting": "Candida [30]", "value": "Active"}
    ]}
  ]
}
